The text below walks through data of PubChem BioAssay (NCI).

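A five-concentration, 48-hour dose response in 96-well plates underlies each endpoint, interpolated linearly between surrounding concentrations. Abbreviation: GI50, concentration required for 50% inhibition of growth. The concentration for full growth arrest is given as TGI.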 A value given as a limit tells only on which side of the number the result lay.

One assay deals with IGROV1 ovarian. Put plainly: growth of human tumour cells (NCI), 48 h.
For the compound `C[C@]12CC[C@H]3[C@@H](CCC4=CC(=O)CC[C@@H]43)[C@@H]1CC[C@@H]2OC(=O)N(CCCl)N=O`, the GI50 was 0.172 µM and the TGI was 15.8 µM.

Compound `CC12CCC(=O)C=C1CCC1C2CCC2(C)C(C(=O)Cn3cnc4c(=S)nc[nH]c43)CCC12` (configuration not stated) yielded a TGI of over 100 µM.

For the compound `Cn1c(=O)c2[nH]c(/N=N/N3CCN(CCO)CC3)nc2n(C)c1=O`, the TGI is over 100 µM.

Take `c1ccc2nc(Cn3c[n+](Cc4ccc5ccccc5n4)c4ccccc43)ccc2c1`: the GI50 is 1.65 µM and the TGI came out at 8.27 µM.

Regarding `O=C(O)CS(=O)(=O)C(c1ccccc1)c1ccccc1`, the TGI is over 100 µM.

With `Nc1ncnc2sc(=S)c3c(c12)CCC3`, the GI50 was 50.5 µM and the TGI was over 100 µM.

Compound `CC(=O)OC1c2ccccc2CC2(OC(C)=O)c3ccccc3C12` (configuration not stated) gave a TGI of over 100 µM.

Take `COc1ccc2c(c1)CCC1C2CCC2(C)C1CCC2(O)CNC(=O)CCCCC1CCSS1` (configuration not stated): the GI50 is 22.7 µM and the TGI was over 100 µM.

With `C=CCC(N[C@H](CO)C(C)C)c1cn(C(=O)OCC)c2ccccc12` (some centres not stated), the GI50 was 7.81 µM and the TGI is 57.1 µM.

For `CC12CCC(=O)C(O1)C1C(=O)c3cc4ccccc4cc3C(=O)C12` (configuration not stated), the GI50 is 23.9 µM and the TGI is over 100 µM.

`CC(C)(C(=O)NN)c1ccccc1` had a TGI of over 100 µM.

The subject of the next assay is SF-539 CNS. Put plainly: growth of human tumour cells (NCI), 48 h.
With `CCN1C(=O)N(CC)C2C1NN=c1s/c(=C3\C(=O)N(C(C)C)c4ccccc43)c(=O)n12` (configuration not stated), the GI50 is 0.24 µM and the TGI is 0.706 µM.

For the compound `CCN=C1C=CC(=C(c2ccc(N(C)C)cc2)c2ccc(N(C)C)cc2)c2ccccc21`, the GI50 was 0.124 µM and the TGI turned out to be 0.53 µM.

As to `CN(C)CCCNC(=O)c1cc(NC(=O)CCNS(=O)(=O)c2ccc3c(c2)C(=O)c2ccccc2C3=O)cn1C`, the GI50 was over 100 µM and the TGI is over 100 µM.

For `C[C@]12CC[C@H]3[C@@H](CCC4=CC(=O)CC[C@@H]43)[C@@H]1CC[C@@H]2OC(=O)N(CCCl)N=O`, the GI50 is 0.0959 µM and the TGI is 10.6 µM.

On to `CC12CCC(=O)C=C1CCC1C2CCC2(C)C(C(=O)Cn3cnc4c(=S)nc[nH]c43)CCC12` (configuration not stated), for which the TGI was over 100 µM.

`Cn1c(=O)c2[nH]c(/N=N/N3CCN(CCO)CC3)nc2n(C)c1=O` had a TGI of over 100 µM.

Consider `c1ccc2nc(Cn3c[n+](Cc4ccc5ccccc5n4)c4ccccc43)ccc2c1`, for which the GI50 is 2.61 µM and the TGI was 12 µM.

`O=C(O)CS(=O)(=O)C(c1ccccc1)c1ccccc1` showed a TGI of over 100 µM.

For `Nc1ncnc2sc(=S)c3c(c12)CCC3`, the GI50 was 17 µM and the TGI was 52.8 µM.

`CC(=O)OC1c2ccccc2CC2(OC(C)=O)c3ccccc3C12` (configuration not stated) displayed a TGI of over 100 µM.

As to `COc1ccc2c(c1)CCC1C2CCC2(C)C1CCC2(O)CNC(=O)CCCCC1CCSS1` (configuration not stated), the GI50 is 18.3 µM and the TGI came to 90.8 µM.

Turning to `C=CCC(N[C@H](CO)C(C)C)c1cn(C(=O)OCC)c2ccccc12` (some centres not stated), the GI50 is 28.2 µM and the TGI was found to be 69.9 µM.

For `CC12CCC(=O)C(O1)C1C(=O)c3cc4ccccc4cc3C(=O)C12` (configuration not stated), the GI50 was 21.8 µM and the TGI turned out to be 59.3 µM.

The compound `CC(C)(C(=O)NN)c1ccccc1` came in with a TGI of over 100 µM.

A further assay relates to HS 578T breast. Description: growth of human tumour cells (NCI), 48 h.
In the case of `CCN1C(=O)N(CC)C2C1NN=c1s/c(=C3\C(=O)N(C(C)C)c4ccccc43)c(=O)n12` (configuration not stated), the GI50 was 0.336 µM and the TGI is 40.3 µM.

In the case of `CCN=C1C=CC(=C(c2ccc(N(C)C)cc2)c2ccc(N(C)C)cc2)c2ccccc21`, the GI50 was 0.149 µM and the TGI stood at 1.02 µM.

For `CN(C)CCCNC(=O)c1cc(NC(=O)CCNS(=O)(=O)c2ccc3c(c2)C(=O)c2ccccc2C3=O)cn1C`, the GI50 is over 100 µM and the TGI is over 100 µM.

Turning to `C[C@]12CC[C@H]3[C@@H](CCC4=CC(=O)CC[C@@H]43)[C@@H]1CC[C@@H]2OC(=O)N(CCCl)N=O`, the GI50 was 5.2 µM and the TGI was found to be 34.2 µM.

`CC12CCC(=O)C=C1CCC1C2CCC2(C)C(C(=O)Cn3cnc4c(=S)nc[nH]c43)CCC12` (configuration not stated) returned a TGI of over 100 µM.

`Cn1c(=O)c2[nH]c(/N=N/N3CCN(CCO)CC3)nc2n(C)c1=O` gave a TGI of over 100 µM.

On to `c1ccc2nc(Cn3c[n+](Cc4ccc5ccccc5n4)c4ccccc43)ccc2c1`, for which the GI50 was 3.19 µM and the TGI worked out at 18.8 µM.

On to `O=C(O)CS(=O)(=O)C(c1ccccc1)c1ccccc1`, for which the TGI was over 100 µM.

Turning to `Nc1ncnc2sc(=S)c3c(c12)CCC3`, the GI50 was 34.5 µM and the TGI came to 99.7 µM.

As to `CC(=O)OC1c2ccccc2CC2(OC(C)=O)c3ccccc3C12` (configuration not stated), the TGI is over 100 µM.

Take `COc1ccc2c(c1)CCC1C2CCC2(C)C1CCC2(O)CNC(=O)CCCCC1CCSS1` (configuration not stated): the GI50 was 13.9 µM and the TGI was over 100 µM.

For the compound `C=CCC(N[C@H](CO)C(C)C)c1cn(C(=O)OCC)c2ccccc12` (some centres not stated), the GI50 was 22.7 µM and the TGI is over 100 µM.

As for `CC12CCC(=O)C(O1)C1C(=O)c3cc4ccccc4cc3C(=O)C12` (configuration not stated), the GI50 was 28.7 µM and the TGI amounted to 73.1 µM.

`CC(C)(C(=O)NN)c1ccccc1` registered a TGI of over 100 µM.

Another assay deals with SK-OV-3 ovarian. Description: growth of human tumour cells (NCI), 48 h.
`CCN1C(=O)N(CC)C2C1NN=c1s/c(=C3\C(=O)N(C(C)C)c4ccccc43)c(=O)n12` (configuration not stated): the GI50 was 0.403 µM and the TGI amounted to 12.1 µM.

Consider `CCN=C1C=CC(=C(c2ccc(N(C)C)cc2)c2ccc(N(C)C)cc2)c2ccccc21`, for which the GI50 is 0.105 µM and the TGI stood at 0.455 µM.

With `CN(C)CCCNC(=O)c1cc(NC(=O)CCNS(=O)(=O)c2ccc3c(c2)C(=O)c2ccccc2C3=O)cn1C`, the GI50 was over 100 µM and the TGI was over 100 µM.

For `C[C@]12CC[C@H]3[C@@H](CCC4=CC(=O)CC[C@@H]43)[C@@H]1CC[C@@H]2OC(=O)N(CCCl)N=O`, the GI50 was 2.77 µM and the TGI was 30 µM.

`CC12CCC(=O)C=C1CCC1C2CCC2(C)C(C(=O)Cn3cnc4c(=S)nc[nH]c43)CCC12` (configuration not stated) showed a TGI of over 100 µM.

For `Cn1c(=O)c2[nH]c(/N=N/N3CCN(CCO)CC3)nc2n(C)c1=O`, the TGI is over 100 µM.

As to `c1ccc2nc(Cn3c[n+](Cc4ccc5ccccc5n4)c4ccccc43)ccc2c1`, the GI50 was 3.03 µM and the TGI stood at 11.3 µM.

As for `O=C(O)CS(=O)(=O)C(c1ccccc1)c1ccccc1`, the TGI was over 100 µM.

On to `Nc1ncnc2sc(=S)c3c(c12)CCC3`, for which the GI50 was 89 µM and the TGI was over 100 µM.

The compound `CC(=O)OC1c2ccccc2CC2(OC(C)=O)c3ccccc3C12` (configuration not stated) gave a TGI of over 100 µM.

As for `C=CCC(N[C@H](CO)C(C)C)c1cn(C(=O)OCC)c2ccccc12` (some centres not stated), the GI50 is 81.3 µM and the TGI was over 100 µM.

As to `CC12CCC(=O)C(O1)C1C(=O)c3cc4ccccc4cc3C(=O)C12` (configuration not stated), the GI50 was 46.6 µM and the TGI was over 100 µM.

Compound `CC(C)(C(=O)NN)c1ccccc1` yielded a TGI of over 100 µM.

The next assay has as its system HCC-2998 colon. Description: growth of human tumour cells (NCI), 48 h.
As for `CCN1C(=O)N(CC)C2C1NN=c1s/c(=C3\C(=O)N(C(C)C)c4ccccc43)c(=O)n12` (configuration not stated), the GI50 was 0.357 µM and the TGI is over 20.8 µM.

Regarding `CCN=C1C=CC(=C(c2ccc(N(C)C)cc2)c2ccc(N(C)C)cc2)c2ccccc21`, the GI50 was 0.137 µM and the TGI was found to be 0.696 µM.

For `CN(C)CCCNC(=O)c1cc(NC(=O)CCNS(=O)(=O)c2ccc3c(c2)C(=O)c2ccccc2C3=O)cn1C`, the GI50 is over 100 µM and the TGI is over 100 µM.

On to `C[C@]12CC[C@H]3[C@@H](CCC4=CC(=O)CC[C@@H]43)[C@@H]1CC[C@@H]2OC(=O)N(CCCl)N=O`, for which the GI50 was 2.2 µM and the TGI was 12.4 µM.

On to `c1ccc2nc(Cn3c[n+](Cc4ccc5ccccc5n4)c4ccccc43)ccc2c1`, for which the GI50 was 2.76 µM and the TGI came to 13.6 µM.

In the case of `Nc1ncnc2sc(=S)c3c(c12)CCC3`, the GI50 is 35 µM and the TGI is over 100 µM.

Turning to `CC(=O)OC1c2ccccc2CC2(OC(C)=O)c3ccccc3C12` (configuration not stated), the TGI was over 100 µM.

In the case of `COc1ccc2c(c1)CCC1C2CCC2(C)C1CCC2(O)CNC(=O)CCCCC1CCSS1` (configuration not stated), the GI50 was 2.13 µM and the TGI is 5.52 µM.

For the compound `C=CCC(N[C@H](CO)C(C)C)c1cn(C(=O)OCC)c2ccccc12` (some centres not stated), the GI50 was 17 µM and the TGI turned out to be 33.6 µM.

Turning to `CC(C)(C(=O)NN)c1ccccc1`, the TGI was over 100 µM.
